# Reference: US9181251B2, “Anti-malarial compounds from marine natural products” (University of Central Florida Research Foundation, Inc., priority 2012, dated 2015)
# Where two headings read alike, the source gives them in different places.
# Key:
# [1] = system: NIH 3T3 fibroblasts; assay: Cytotoxicity against NIH 3T3 fibroblasts (MTS assay); format: cell-based; conditions: Table 2, MTS assay
# Protocol: (§1) Antiplasmodial activity was tested in P falciparum chloroquine resistant Dd2, and the cytotoxicity was assessed in NIH 3T3 fibroblasts cells.
# (§2) Asynchronous cultures were exposed to different concentrations of inhibitor for 72 hrs. […] The cytotoxicity against NIH 3T3 fibroblasts was evaluated using an MTS assay [(3-(4,5-dimethylthiazol-2-yl)-5-(3-carboxymethoxyphenyl)-2-(4-sulfophenyl)-2H-tetrazolium), CellTiter 96® Aqueous non-radioactive cell proliferation assay, Promega
# [2] = system: P. falciparum chloroquine-resistant Dd2 strain; assay: Antiplasmodial activity, SYBR Green I fluorescence-based assay; format: cell-based; conditions: for Selectivity: cytotoxicity IC50 (NIH 3T3) over Dd2 IC50
# Protocol: Fractions were derived from 20 different marine species. […] All fractions were then analyzed by LC-MS to identify active extracts with the greatest potential for novelty.
# as §1, §2
# [3] = Cytotoxicity against NIH 3T3 fibroblasts (MTS assay); format: cell-based; conditions: mouse, Table 1, NIH 3T3 fibroblasts cells
# Protocol: as §1, §2
# [4] = has been shown, no source given; cited from earlier work
# [5] = reported in the past, Gutierrez et. al. Pharmaceutical Biol. 2005, 43, 762-765; cited from earlier work
# [6] = Table 2, chloroquine-resistant Dd2 strain, asynchronous cultures, 72 hrs, read-out: P. falciparum IC50
# [7] = Plasmodium falciparum, Table 1, P falciparum chloroquine resistant Dd2, read-out: Dd2 IC50
# [8] = Plasmodium falciparum, Table 2, chloroquine-resistant Dd2 strain, asynchronous cultures, 72 hrs, read-out: P. falciparum IC50
molecule,measurement,setting,value
Dragmacidin D [Dragmacidin D 11],IC50,[1],27.7 µM
same,IC50,[2]; [6],5.2 µM
"CCC(=O)NCCc1c2c3c(ccnc3c3ncsc13)-c1ccccc1N2 [Compound 5, dercitamide]",IC50,[3]; NIH 3T3 fibroblast cells,14.8 µM
same,cytotoxicity,[4],very moderate cytotoxicity
same,IC50,"[2]; Dd2 strain printed for compound 3 only, strain not printed for 4 and HB39.A10, read-out: IC50",2.3 µM
same,IC50,[2]; [7],1.05 µM
same,Selectivity,[2]; Table 1,14.13
"O=C1NC[C@H](c2c[nH]c3cc(Br)ccc23)N=C1c1c[nH]c2cc(Br)ccc12 [Hamacanthin B 8, Hamacanthin B]",IC50,[1],38.6 µM
same,IC50,[2]; [6],> 20.6 µM
C/C1=C/C(=O)C/C(C)=C/CC(C)(C)/C=C/C(=O)[C@@H](C)CCC1 [Compound 2],IC50,[3]; NIH 3T3 fibroblast cells,21.8 µM
same,IC50,[2]; [7],1.56 µM
same,Selectivity,[2]; Table 1,13.94
"Brc1ccc2c(-c3cnc(-c4c[nH]c5cc(Br)ccc45)[nH]3)c[nH]c2c1 [Nortopsentin A, reference compound]",IC50,"[1]; Mus musculus, NIH3T3",6 µM
same,IC50,[2]; [8],0.6 µM
"CN1CC(c2c[nH]c3c(Br)c(Br)cc(O)c23)NCC1c1c[nH]c2cc(Br)ccc12 (stereo not shown) [Dragmacidin 6, Dragmacidin]",IC50,[1],7.8 µM
same,IC50,[2]; [6],6.4 µM
"O=C1N[C@@H](c2c[nH]c3cc(Br)ccc23)CN=C1c1c[nH]c2cc(Br)ccc12 [Hamacanthin A 7, Hamacanthin A]",IC50,[1],30.4 µM
same,IC50,[2]; [6],3.2 µM
"COC1=C(Br)[C@H](O)[C@](O)(CC#N)C=C1Br [Aeroplysin-1, aeroplysinin-1]",anti-malarial activity,[5],anti-malarial activity
"NCC(c1c[nH]c2ccccc12)c1c[nH]c2ccccc12 [2,2 bisindol-3-ylethyl amine 9, 2,2 bisindol-3-ylethyl amine]",IC50,"[1]; Mus musculus, NIH3T3",11.5 µM
same,IC50,[2]; [8],6.5 µM
"NC(N)=NCCSc1nc(-c2c[nH]c3cc(Br)ccc23)cnc1-c1c[nH]c2cc(Br)ccc12 [Dragmacidin G 12, Dragmacidin G]",IC50,[1],7.8 µM
same,IC50,[2]; [6],6.4 µM
"COc1ccc(/C=C/CCCCC(C)[C@H](O)[C@@H](O)C2NC(=O)C[C@@H](O)CNC(=O)CNC(=O)[C@@H](Cc3c(C(=O)O)[nH]c4ccccc34)NC(=O)CN(C)C(=O)C[C@@]3(O)NC(=O)[C@H](O)C3NC(=O)[C@H]2O)cc1 (stereo partly shown) [Compound 4, microsclerodermin A]",IC50,[3],3.53 µM
same,IC50,"[2]; Plasmodium falciparum, DD2",0.73 µM
same,IC50,"[2]; Plasmodium falciparum, DD2, read-out: Dd2 IC50",0.075 µM
same,Selectivity,[2]; Table 1,47.07
C/C1=C\CC(C)(C)/C=C/C(=O)[C@@H](C)CCC[C@H](C)CC(=O)C1 [Compound 3],IC50,[3]; NIH 3T3 fibroblast cells,20 µM
same,IC50,"[2]; Plasmodium falciparum, Dd2 strain printed for compound 3 only, strain not printed for 4 and HB39.A10, read-out: IC50",2.5 µM
same,IC50,[2]; [7],1.77 µM
same,Selectivity,[2]; Table 1,11.34
